Activity calls are given as the source filed them. No cut-off for these calls is given here.

Data set [1] concerns the target Cyclin-dependent kinase 19 (Homo sapiens) (UniProt Q9BWU1). Description: Inhibition of human CDK19 at 2 uM by competition binding assay relative to control. The note with it: values are per cent of control.
Data set [2] concerns the target T1, Serine/threonine-protein kinase haspin (Homo sapiens) (UniProt Q8TF76).
T1 sequence (whole entry): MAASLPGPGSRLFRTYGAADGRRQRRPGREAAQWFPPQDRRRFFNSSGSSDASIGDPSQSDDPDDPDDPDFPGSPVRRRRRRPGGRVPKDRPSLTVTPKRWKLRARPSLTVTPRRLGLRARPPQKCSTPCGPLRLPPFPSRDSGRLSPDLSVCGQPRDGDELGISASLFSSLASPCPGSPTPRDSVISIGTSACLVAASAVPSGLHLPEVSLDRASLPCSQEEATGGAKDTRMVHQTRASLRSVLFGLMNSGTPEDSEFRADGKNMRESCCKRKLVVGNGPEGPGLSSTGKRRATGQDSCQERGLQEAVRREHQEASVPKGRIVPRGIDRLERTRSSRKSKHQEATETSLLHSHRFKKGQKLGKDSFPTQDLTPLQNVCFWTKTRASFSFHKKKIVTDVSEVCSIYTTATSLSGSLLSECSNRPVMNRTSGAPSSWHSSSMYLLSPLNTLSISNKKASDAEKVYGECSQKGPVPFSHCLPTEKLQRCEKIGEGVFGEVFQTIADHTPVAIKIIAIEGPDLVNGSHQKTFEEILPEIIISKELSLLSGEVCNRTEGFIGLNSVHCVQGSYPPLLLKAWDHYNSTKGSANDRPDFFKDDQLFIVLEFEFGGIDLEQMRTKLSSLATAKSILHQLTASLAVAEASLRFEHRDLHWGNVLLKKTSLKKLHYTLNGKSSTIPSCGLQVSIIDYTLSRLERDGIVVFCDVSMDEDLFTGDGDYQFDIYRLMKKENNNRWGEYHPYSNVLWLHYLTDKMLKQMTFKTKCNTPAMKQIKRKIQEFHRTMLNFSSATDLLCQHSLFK
Briefly: Inhibition of human HASPIN at 2 uM by competition binding assay relative to control. The note with it: values are per cent of control.

Data set [3] concerns the target T2, Myosin-IIIb (Homo sapiens) (UniProt Q8WXR4).
T2 sequence (whole entry): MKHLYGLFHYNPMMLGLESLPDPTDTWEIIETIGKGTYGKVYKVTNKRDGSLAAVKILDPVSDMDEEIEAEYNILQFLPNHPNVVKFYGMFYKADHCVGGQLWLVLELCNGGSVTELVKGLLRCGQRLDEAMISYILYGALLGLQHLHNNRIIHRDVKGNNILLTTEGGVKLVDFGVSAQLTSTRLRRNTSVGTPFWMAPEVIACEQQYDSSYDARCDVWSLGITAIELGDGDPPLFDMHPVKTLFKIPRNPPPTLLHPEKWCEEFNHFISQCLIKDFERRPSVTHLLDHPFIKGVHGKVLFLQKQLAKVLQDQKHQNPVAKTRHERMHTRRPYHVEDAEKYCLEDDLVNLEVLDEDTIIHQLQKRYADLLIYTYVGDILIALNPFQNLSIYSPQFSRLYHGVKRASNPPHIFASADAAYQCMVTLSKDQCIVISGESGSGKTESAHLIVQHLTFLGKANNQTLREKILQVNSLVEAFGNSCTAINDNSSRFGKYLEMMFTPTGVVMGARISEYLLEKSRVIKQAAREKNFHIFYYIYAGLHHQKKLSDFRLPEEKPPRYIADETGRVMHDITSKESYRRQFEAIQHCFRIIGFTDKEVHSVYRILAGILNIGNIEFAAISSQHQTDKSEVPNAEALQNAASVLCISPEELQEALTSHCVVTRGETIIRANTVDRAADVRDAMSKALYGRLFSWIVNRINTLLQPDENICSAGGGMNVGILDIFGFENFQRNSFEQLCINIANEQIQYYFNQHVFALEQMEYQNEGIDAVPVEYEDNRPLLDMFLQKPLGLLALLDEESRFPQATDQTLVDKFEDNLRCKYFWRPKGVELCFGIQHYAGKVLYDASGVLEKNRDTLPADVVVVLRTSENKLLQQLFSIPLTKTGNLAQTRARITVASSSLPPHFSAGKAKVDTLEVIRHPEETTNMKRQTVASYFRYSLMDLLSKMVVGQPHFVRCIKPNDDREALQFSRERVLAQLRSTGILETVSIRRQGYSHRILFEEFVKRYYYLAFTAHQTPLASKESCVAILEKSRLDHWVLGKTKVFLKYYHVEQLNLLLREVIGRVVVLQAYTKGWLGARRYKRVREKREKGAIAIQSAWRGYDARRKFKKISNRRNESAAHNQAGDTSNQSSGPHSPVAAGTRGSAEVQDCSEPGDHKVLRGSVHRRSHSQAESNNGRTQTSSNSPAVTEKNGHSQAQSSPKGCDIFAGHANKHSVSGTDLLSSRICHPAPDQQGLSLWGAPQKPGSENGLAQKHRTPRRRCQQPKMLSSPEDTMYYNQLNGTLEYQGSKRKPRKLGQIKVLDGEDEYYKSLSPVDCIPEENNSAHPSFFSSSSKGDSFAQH
Description: Inhibition of human MYO3B at 2 uM by competition binding assay relative to control. The note with it: values are per cent of control.

A further data set deals with CDK8/Cyclin C (Homo sapiens, UniProt P49336). Briefly: Binding affinity to kinase tracer 236 binding to His tagged recombinant human CDK8/cyclinC assessed as dissociation constant by TR FRET based assay. In kind it is protein-complex assay. Background: TR-FRET usually uses a lanthanide donor and a delayed reading to cut background.
The subject of data set [4] is HEK293. Description: Inhibition of TNFalpha induced CDK8/19 dependent NF kappa B activity in Wild type HEK293 cell for 3 hrs by qt-PCR analysis. The class given is functional, cell-based. Particulars: Homo sapiens.
In data set [5] the test system is HEK293. Description: Effect of compound on HEK293 cells assessed as expression of mRNA in NFkappaB induced CXCL8 gene in presence of pretreatment with TNFalpha for 2 hr by qPCR analysis. The note with it: Homo sapiens. In kind it is functional, cell-based. Background: Quantitative PCR measures a nucleic acid by following its amplification.
Data set [6] can be described thus: Metabolic stability in human hepatocyte assessed as intrinsic clearance at 2 uM measured per 10^6 by LC-MS/MS analysis. The class given is ADME, cell-based. The note with it: hepatocytes.
Data set [7] is described as follows: Half life in tumor of BALB/c mouse xenografted with mouse CT26 cells at 2.5 mg/kg, iv by LC-MS/MS analysis. The class given is ADME, organism-based, Neoplasm.
Data set [8] is described as follows: Tmax in plasma of BALB/c mouse xenografted with mouse CT26 cells at 100 mg/kg, po by LC-MS/MS analysis. The class given is ADME, organism-based.
Data set [9] in a line: Cmax in plasma of BALB/c mouse xenografted with mouse CT26 cells at 100 mg/kg, po by LC-MS/MS analysis. In kind it is ADME, organism-based. Also on record: route oral, dose 100 mg/kg.
The test system of a further data set is MV4-11. Description: Antitumor activity against human luciferase expressing MV4-11 AML cells xenografted in NOD SCID NSG mouse assessed as supression of tumor growth at 40 mg/kg, po bid for 4 weeks by bioluminescence imaging method. In kind it is functional, organism-based.
Data set [10] is described as follows: Half life in plasma of BALB/c mouse xenografted with mouse CT26 cells at 2.5 mg/kg, iv by LC-MS/MS analysis. In kind it is ADME, organism-based.
The nature of data set [11]: Elimination rate constant in tumor of BALB/c mouse xenografted with mouse CT26 cells at 100 mg/kg, po by LC-MS/MS analysis. In kind it is ADME, organism-based, Neoplasm.
The nature of data set [12]: AUC (0-24hrs) in tumor of BALB/c mouse xenografted with mouse CT26 cells at 100 mg/kg, po by LC-MS/MS analysis. The class given is ADME, organism-based, Neoplasm. Also on record: time < 24 hr, route oral, dose 100 mg/kg.

CDK8/Cyclin C, sequence (P49336 whole entry): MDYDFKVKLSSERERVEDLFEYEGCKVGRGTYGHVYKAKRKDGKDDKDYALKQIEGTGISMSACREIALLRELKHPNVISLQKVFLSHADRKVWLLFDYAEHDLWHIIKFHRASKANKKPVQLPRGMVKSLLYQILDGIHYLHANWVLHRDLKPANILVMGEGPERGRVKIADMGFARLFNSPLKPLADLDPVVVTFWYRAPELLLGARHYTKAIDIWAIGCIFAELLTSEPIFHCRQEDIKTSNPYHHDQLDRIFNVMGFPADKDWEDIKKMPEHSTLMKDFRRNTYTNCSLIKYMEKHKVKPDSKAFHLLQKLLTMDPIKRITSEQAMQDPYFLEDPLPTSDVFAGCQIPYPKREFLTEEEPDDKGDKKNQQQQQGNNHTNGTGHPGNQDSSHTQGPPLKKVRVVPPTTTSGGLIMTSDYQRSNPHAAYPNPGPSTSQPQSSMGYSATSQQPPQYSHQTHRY
CDK8/Cyclin C, sequence (P24863 whole entry, further chain): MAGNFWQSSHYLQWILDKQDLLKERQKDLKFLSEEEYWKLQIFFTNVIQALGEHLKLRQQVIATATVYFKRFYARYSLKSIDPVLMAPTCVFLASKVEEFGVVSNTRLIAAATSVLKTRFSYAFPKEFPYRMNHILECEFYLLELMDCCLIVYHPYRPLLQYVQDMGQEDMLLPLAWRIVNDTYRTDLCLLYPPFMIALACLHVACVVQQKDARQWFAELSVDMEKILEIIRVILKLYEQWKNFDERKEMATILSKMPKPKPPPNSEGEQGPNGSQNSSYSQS
Cyclin-dependent kinase 19 (Homo sapiens), sequence (Q9BWU1 whole entry): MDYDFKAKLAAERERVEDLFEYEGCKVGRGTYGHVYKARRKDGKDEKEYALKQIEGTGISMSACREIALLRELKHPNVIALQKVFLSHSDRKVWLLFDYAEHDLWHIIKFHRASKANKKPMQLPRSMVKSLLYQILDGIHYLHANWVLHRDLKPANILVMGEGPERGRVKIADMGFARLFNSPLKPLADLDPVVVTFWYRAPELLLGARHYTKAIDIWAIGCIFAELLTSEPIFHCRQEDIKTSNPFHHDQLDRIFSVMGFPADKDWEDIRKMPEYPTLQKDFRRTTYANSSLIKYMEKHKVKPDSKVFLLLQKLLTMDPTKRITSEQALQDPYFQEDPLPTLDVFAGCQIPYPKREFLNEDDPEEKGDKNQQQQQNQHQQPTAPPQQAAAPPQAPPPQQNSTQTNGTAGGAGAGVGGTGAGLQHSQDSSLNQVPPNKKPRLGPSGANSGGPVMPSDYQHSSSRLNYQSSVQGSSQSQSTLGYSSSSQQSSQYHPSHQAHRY

The Kd is the equilibrium constant for the complex coming apart. A word on the half-life: it is the time in which the quantity being followed falls by half. A lower half-life goes with rapid decline. The term Tmax denotes the time at which the peak concentration occurs. As a reminder, the Cmax is the highest concentration seen after dosing. The term AUC(0-t) denotes exposure summed from dosing to a finite time, without extrapolation to infinity. Higher therefore signals more exposure. `CN1CCN(C(=O)c2ccc3cc(CCNc4ccnc5ccc(C#N)cc45)ccc3c2)CC1`: the residual binding, % of control in data set [1] was 13%; in data set [2], 29%; in data set [3] it was 31%. At CDK8/Cyclin C, the Kd was determined as 1.39 nM. For the same compound, the outcome in the data set with HEK293 [4], in the data set on HEK293 [5] and in the data set with MV4-11 was Active. For the same compound, in data set [6], the CLH stood at 0.00639 mL/min. In addition, the results for the half-life in [7] and in data set [10] were 12.1 h and 0.75 h, respectively. Moreover, the Tmax in data set [8] amounted to 12 h. This compound also returned a Cmax in [9] of 144 ng/mL. In [11], the k el is 2.78e-05 s⁻¹. The AUC(0-t) at 24 h in data set [12] was found to be 88600 ng·h/mL.

The values above are taken from ChEMBL document CHEMBL5046270, “A Selective and Orally Bioavailable Quinoline-6-Carbonitrile-Based Inhibitor of CDK8/19 Mediator Kinase with Tumor-Enriched Pharmacokinetics” (J Med Chem, 2022).
